Data as given in patent publication US4740233A, “Substituted 1,2,4-triazolo[1,5-a]-pyrimidine-2-sulfonamides and compositions and methods of controlling undesired vegetation and suppressing the nitrification of ammonium nitrogen in soil” (The Dow Chemical Company, priority 1986, dated 1988).

Key:
Assay in all cases: Preemergent control of plant species
sugar beet = assay type: in vivo, Beta saccharifera; details: Beta vulgaris, pre-emergence, 336 h; 0.25 lb/acre; read-out: percent preemergent control
In short: (§1)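 Seeds sown in agricultural soil beds in a greenhouse received aqueous emulsions of test compositions applied uniformly over the bed surface at the listed rates; water-treated beds served as control. After two weeks under greenhouse growth conditions, control was scored as growth reduction versus untreated plants of the same species.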

johnson grass = assay type: in vivo, Sorghum halepense; details: Sorghum halepense, pre-emergence, 336 h; 0.25 lb/acre; read-out: percent preemergent control
In short: as §1

velvetleaf = assay type: in vivo, Abutilon theophrasti; details: Abutilon theophrasti, pre-emergence, 336 h; 0.25 lb/acre; read-out: percent preemergent control
In short: as §1

wild oats = assay type: in vivo; details: Avena fatua, pre-emergence, 336 h; 0.25 lb/acre; read-out: percent preemergent control
Description: The seeds of various species of plants were planted in beds of good agricultural soil in a greenhouse. A number of compositions of the present invention, generally in the nature of an aqueous emulsion, were applied at rates listed in the table so as to deposit a predetermined amount of active ingredients uniformly throughout the surface of the bed. Another seed bed was treated only with water to serve as a control. After treatment the seed beds were maintained for two weeks under greenhouse conditions conducive for good plant growth and watered as necessary. Control refers to the reduction in growth compared to the observed results of the same untreated species.

yellow nutsedge = assay type: in vivo, Cyperus esculentus; details: Cyperus, pre-emergence, 336 h; 0.25 lb/acre; read-out: percent preemergent control
In short: as §1

annual morning glory = assay type: in vivo, Ipomoea spp.; details: Ipomoea, pre-emergence, 336 h; 0.25 lb/acre; read-out: percent preemergent control
In short: as §1

cotton = assay type: in vivo, Gossypium spp.; details: Gossypium hirsutum, pre-emergence, 336 h; 0.25 lb/acre; read-out: percent preemergent control
In short: as §1

rape = assay type: in vivo, Brassica napus; details: Brassica napus, pre-emergence, 336 h; 0.25 lb/acre; read-out: percent preemergent control
In short: as §1

barnyardgrass = assay type: in vivo, Echinochloa crusgalli; details: Echinochloa crus-galli, pre-emergence, 336 h; 0.25 lb/acre; read-out: percent preemergent control
In short: as §1

soybean = assay type: in vivo, Glycine max.; details: Glycine max, pre-emergence, 336 h; 0.25 lb/acre; read-out: percent preemergent control
In short: as §1

yellow foxtail = assay type: in vivo, Setaria lutescens; details: Setaria, pre-emergence, 336 h; 0.25 lb/acre; read-out: percent preemergent control
In short: as §1

jimsonweed = assay type: in vivo, Datura stramonium; details: Datura stramonium, pre-emergence, 336 h; 0.25 lb/acre; read-out: percent preemergent control
In short: as §1

corn = assay type: in vivo, Zea mays; details: Zea mays, pre-emergence, 336 h; 0.25 lb/acre; read-out: percent preemergent control
In short: as §1

wheat = assay type: in vivo, Triticum aestivum; details: Triticum aestivum, pre-emergence, 336 h; 0.25 lb/acre; read-out: percent preemergent control
In short: as §1

rice = assay type: in vivo, Oryza sativa; details: Oryza sativa, pre-emergence, 336 h; 0.25 lb/acre; read-out: percent preemergent control
In short: as §1

sorghum = assay type: in vivo, Sorghum vulgare; details: Sorghum, pre-emergence, 336 h; 0.25 lb/acre; read-out: percent preemergent control
In short: as §1

Row | Compound | plant injury at 280.212 g/ha (sugar beet) [%] | pest or weed control at 280.212 g/ha (johnson grass) [%] | pest or weed control at 280.212 g/ha (velvetleaf) [%] | pest or weed control at 280.212 g/ha (wild oats) [%] | pest or weed control at 280.212 g/ha (yellow nutsedge) [%] | pest or weed control at 280.212 g/ha (annual morning glory) [%] | plant injury at 280.212 g/ha (cotton) [%] | plant injury at 280.212 g/ha (rape) [%] | pest or weed control at 280.212 g/ha (barnyardgrass) [%] | plant injury at 280.212 g/ha (soybean) [%] | pest or weed control at 280.212 g/ha (yellow foxtail) [%] | pest or weed control at 280.212 g/ha (jimsonweed) [%] | plant injury at 280.212 g/ha (corn) [%] | plant injury at 280.212 g/ha (wheat) [%] | plant injury at 280.212 g/ha (rice) [%] | plant injury at 280.212 g/ha (sorghum) [%]
1 | Cc1ccn2nc(S(=O)(=O)N(C(=O)CC(C)C)c3c(F)cccc3F)nc2n1 [Compound 284] | 100 | 100 | 100 | 90 | 100 | 80 | 100 | 100 | 100 | 20 | 100 | 100 | 85 | 100 | 100 | 100
2 | Cc1ccnc2nc(S(=O)(=O)Nc3c(F)cccc3Cl)nn12 [Compound 181] | 98 | 60 | 98 | 40 | 50 | 80 | 98 | 100 | 20 | 80 | 80 | 98 | 0 | 0 | 30 | 95
3 | CCOCCOC(=O)c1cccc(C)c1NS(=O)(=O)c1nc2nc(C)cc(C)n2n1 [Compound 72] | 90 | 50 | 60 | 90 | 100 | 10 | 40 | 100 | 30 | 90 | 50 | 100 | 90 | 90 | 70 | 80
4 | COC(=O)c1ccc(C)c(NS(=O)(=O)c2nc3nc(C)cc(C)n3n2)c1Br [Compound 86, methyl 3-amino-2-bromo-4-methyl-N-(5,7-dimethyl-1,2,4-triazolo[1,5-a]pyrimidine-2-sulfonyl)benzoate] | 100 | 0 | 0 | 0 | 0 | 0 | 0 | 100 | 0 | 20 | 0 | 100 | 0 | 0 | 0 | 0
5 | COc1nc2nc(S(=O)(=O)Nc3c(F)cccc3F)nn2cc1C [Compound 214] | 100 | 100 | 100 | 100 | 100 | 100 | 100 | 100 | 100 | 100 | 100 | 100 | 100 | 100 | 100 | 100
6 | CCOC(=O)N(c1c(Cl)cccc1Cl)S(=O)(=O)c1nc2nc(C)ccn2n1 [Compound 272] | 100 | 40 | 100 | 0 | 100 | 40 | 80 | 100 | 60 | 0 | 90 | 90 | 0 | 0 | 30 | 40
7 | Cc1ccn2nc(S(=O)(=O)N(C(=O)c3ccccc3)c3c(F)cccc3F)nc2n1 [Compound 290] | 100 | 100 | 100 | 70 | 80 | 100 | 100 | 100 | 100 | 70 | 100 | 100 | 90 | 95 | 100 | 100
8 | CC=CC(=O)N(c1c(F)cccc1F)S(=O)(=O)c1nc2nc(C)ccn2n1 [Compound 288] | 100 | 100 | 100 | 90 | 100 | 100 | 100 | 100 | 100 | 40 | 100 | 100 | 80 | 60 | 100 | 100
9 | Cc1ccn2nc(S(=O)(=O)N(C(=O)CCCl)c3c(F)cccc3F)nc2n1 [Compound 282] | 100 | 100 | 100 | 100 | 100 | 80 | 100 | 100 | 70 | 50 | 100 | 100 | 95 | 70 | 100 | 100
10 | Cc1ccn2nc(S(=O)(=O)N(C(=O)C=Cc3ccccc3)c3c(F)cccc3F)nc2n1 [Compound 293] | 100 | 95 | 100 | 95 | 100 | 70 | 100 | 100 | 100 | 10 | 100 | 100 | 60 | 60 | 90 | 100
11 | Cc1ccn2nc(S(=O)(=O)N(C(=O)C3CCCCC3)c3c(F)cccc3F)nc2n1 [Compound 291] | 100 | 100 | 100 | 70 | 100 | 90 | 100 | 100 | 100 | 20 | 100 | 100 | 55 | 100 | 100 | 100
